# Values quoted from earlier work in PubChem BioAssay AID1259409 (Chemical Carcinogenesis Research Information System (CCRIS), 2018).
# Tested on: rodent chemically induced tumor inhibition, incidence and multiplicity
# Experiment: CCRIS tumor inhibitor studies
smiles,measurement,setting,value
O=c1c(O)c(-c2ccc(O)c(O)c2)oc2cc(O)cc(O)c12,"tumour outcome (control, treated, inhibition, significance)","Carcinogen: 4-NITROQUINOLINE-1-OXIDE, 56-57-5, Dose [Inhibitor]: 0, 500 PPM IN DIET FOR 10 WK BEGINNING 1 WK PRIOR TO CARCINOGEN DOSE (STUDY DURATION: 32 WK), Route [Inhibitor]: ORAL, Species: RAT, Strain/Sex: F344/MALE, Target Tissue: Type of Lesion: TONGUE: CARCINOMA, Dose [Carcinogen]: 20 PPM IN DRINKING WATER FOR 8 WK, Promoter: NONE USED","9/15 (60%), 2/16 (13%), 78%, p<0.05"
same,"tumour outcome (control, treated, inhibition, significance)","Carcinogen: 4-NITROQUINOLINE-1-OXIDE, 56-57-5, Dose [Inhibitor]: 0, 500 PPM IN DIET FOR 10 WK BEGINNING 1 WK PRIOR TO CARCINOGEN DOSE (STUDY DURATION: 32 WK), Route [Inhibitor]: ORAL, Species: RAT, Strain/Sex: F344/MALE, Target Tissue: Type of Lesion: TONGUE: PAPILLOMA, Dose [Carcinogen]: 20 PPM IN DRINKING WATER FOR 8 WK, Promoter: NONE USED","4/15 (27%), 1/16 (6%), 78%, not significant"
same,"tumour outcome (control, treated, inhibition, significance)","Carcinogen: 4-NITROQUINOLINE-1-OXIDE, 56-57-5, Dose [Inhibitor]: 0, 500 PPM IN DIET FOR 22 WK BEGINNING 1 WK POST CARCINOGEN TREATMENT (STUDY DURATION: 32 WK), Route [Inhibitor]: ORAL, Species: RAT, Strain/Sex: F344/MALE, Target Tissue: Type of Lesion: TONGUE: CARCINOMA, Dose [Carcinogen]: 20 PPM IN DRINKING WATER FOR 8 WK, Promoter: NONE USED","9/15 (60%), 1/15 (7%), 88%, p<0.05"
same,"tumour outcome (control, treated, inhibition, significance)","Carcinogen: 4-NITROQUINOLINE-1-OXIDE, 56-57-5, Dose [Inhibitor]: 0, 500 PPM IN DIET FOR 22 WK BEGINNING 1 WK POST CARCINOGEN TREATMENT (STUDY DURATION: 32 WK), Route [Inhibitor]: ORAL, Species: RAT, Strain/Sex: F344/MALE, Target Tissue: Type of Lesion: TONGUE: PAPILLOMA, Dose [Carcinogen]: 20 PPM IN DRINKING WATER FOR 8 WK, Promoter: NONE USED","4/15 (27%), 1/15 (7%), 74%, not significant"
same,"tumour outcome (control, treated, inhibition, significance)","Carcinogen: 7,12-DIMETHYLBENZ[A]ANTHRACENE, 57-97-6, Dose [Inhibitor]: 0, 0.2 ML OF A 1% SOLUTION 1/D FOR 2 WK APPLIED 5 MIN POST EACH CARCINOGEN DOSE THEN 1/D FOR 4 WK DURING PROMOTION STAGE, Route [Inhibitor]: DERMAL, Species: MOUSE, Strain/Sex: SWISS/MALE, Target Tissue: Type of Lesion: SKIN: PAPILLOMA, Dose [Carcinogen]: 0.2 ML OF A 0.24% SOLUTION IN DMSO 1/D FOR 2 WK, Promoter: CROTON OIL, 8001-28-3","23/23 (100%), 8/24 (33%), 67%, not calculated"
same,"tumour outcome (control, treated, inhibition, significance)","Carcinogen: 7,12-DIMETHYLBENZ[A]ANTHRACENE, 57-97-6, Dose [Inhibitor]: 0, 0.2 ML OF A 1% SOLUTION 1/D FOR 2 WK APPLIED 5 MIN PRIOR TO EACH CARCINOGEN DOSE (STUDY DURATION: 20 WK), Route [Inhibitor]: DERMAL, Species: MOUSE, Strain/Sex: SWISS/MALE, Target Tissue: Type of Lesion: SKIN: PAPILLOMA, Dose [Carcinogen]: 0.2 ML OF A 0.24% SOLUTION IN DMSO 1/D FOR 2 WK, Promoter: CROTON OIL, 8001-28-3","23/23 (100%), 20/24 (83%), 17%, not calculated"
same,"tumour outcome (control, treated, inhibition, significance)","Carcinogen: 7,12-DIMETHYLBENZ[A]ANTHRACENE, 57-97-6, Dose [Inhibitor]: 0, 3% IN DIET FOR 28 WK (STUDY DURATION: 28 WK), Route [Inhibitor]: ORAL, Species: RAT, Strain/Sex: SPRAGUE-DAWLEY/FEMALE, Target Tissue: Type of Lesion: MAMMARY GLAND: CARCINOMA, Dose [Carcinogen]: 10 MG/100 G BW ONCE","16/21 (76%), 10/22 (46%), 39% p<0.05"
same,"tumour outcome (control, treated, inhibition, significance)","Carcinogen: 7,12-DIMETHYLBENZ[A]ANTHRACENE, 57-97-6, Dose [Inhibitor]: 1.0% IN POWDERED DIET BEGINNING 1 WK POST CARCINOGEN DOSE FOR 51 WK (STUDY DURATION: 52 WK), Route [Inhibitor]: ORAL, Species: RAT, Strain/Sex: SPRAGUE-DAWLEY/FEMALE, Target Tissue: Type of Lesion: EAR DUCT: BENIGN TUMOR, Dose [Carcinogen]: 2.5 MG/100 G BW IN 0.5 ML SESAME OIL ONCE, Promoter: NONE USED","7/19 (37%), 4/18 (22%), 40%, not calculated"
same,"tumour outcome (control, treated, inhibition, significance)","Carcinogen: 7,12-DIMETHYLBENZ[A]ANTHRACENE, 57-97-6, Dose [Inhibitor]: 1.0% IN POWDERED DIET BEGINNING 1 WK POST CARCINOGEN DOSE FOR 51 WK (STUDY DURATION: 52 WK), Route [Inhibitor]: ORAL, Species: RAT, Strain/Sex: SPRAGUE-DAWLEY/FEMALE, Target Tissue: Type of Lesion: MAMMARY GLAND: CARCINOMA, Dose [Carcinogen]: 2.5 MG/100 G BW IN 0.5 ML SESAME OIL ONCE, Promoter: NONE USED","6/19 (32%), 4/18 (22%), 30%, not calculated"
same,"tumour outcome (control, treated, inhibition, significance)","Carcinogen: 7,12-DIMETHYLBENZ[A]ANTHRACENE, 57-97-6, Dose [Inhibitor]: 1.0% IN POWDERED DIET BEGINNING 1 WK POST CARCINOGEN DOSE FOR 51 WK (STUDY DURATION: 52 WK), Route [Inhibitor]: ORAL, Species: RAT, Strain/Sex: SPRAGUE-DAWLEY/FEMALE, Target Tissue: Type of Lesion: MAMMARY GLAND: FIBROADENOMA, Dose [Carcinogen]: 2.5 MG/100 G BW IN 0.5 ML SESAME OIL ONCE, Promoter: NONE USED","15/19 (79%), 8/18 (44%), 44%, not calculated"
same,"tumour outcome (control, treated, inhibition, significance)","Carcinogen: 7,12-DIMETHYLBENZ[A]ANTHRACENE, 57-97-6, Dose [Inhibitor]: 30 UMOL 2 D/WK FOR 18 WK APPLIED 30-40 MIN PRIOR TO AND CONCURRENT WITH EACH PROMOTER TREATMENT BEGINNING 10 D POST CARC, Route [Inhibitor]: DERMAL, Species: MOUSE, Strain/Sex: CD-1/FEMALE, Target Tissue: Type of Lesion: SKIN: PAPILLOMA, Dose [Carcinogen]: 200 NMOL ONCE, Promoter: 12-O-TETRADECANOYLPHORBOL-13-ACETATE, 16561-29-8","95%, 62%, 35%, not calculated"
